# Source: US4831051A, “Aromatic derivatives comprising an aminoalkoxy chain, the salts thereof, the process for preparing these derivatives and salts and the application thereof in therapeutics” (Delande S.A., priority 1981, dated 1989)
# Assay: acute toxicity estimated on mice (method of MILLER and TAINTER)
# Conditions: mouse, in vivo, iv
row,Compound,LD50 [mg/kg]
1,COc1ccc(OC)c(C(=O)CCc2ccc(O)cc2)c1OCCN1CCCCC1 [compound 2],14
2,COc1ccc(OC)c(C(O)CCc2ccccc2)c1OCCN1CCCCC1 (stereo not shown) [compound 3],16
3,COc1ccc(OC)c(C(O)CCc2ccc(F)cc2)c1OCCN1CCCCC1 (stereo not shown) [compound 4],31
4,COc1ccc(OC)c(C(O)CCc2ccc(Cl)cc2)c1OCCN1CCCCC1 (stereo not shown) [compound 5],33
5,COc1ccc(OC)c(C(O)CCc2ccc(C)cc2)c1OCCN1CCCCC1 (stereo not shown) [compound 6],31
6,COc1ccc(CCC(O)c2c(OC)ccc(OC)c2OCCN2CCCCC2)cc1 (stereo not shown) [compound 7],27
7,COc1ccc(OC)c(C(O)CCc2ccccc2O)c1OCCN1CCCCC1 (stereo not shown) [compound 8],12
8,COc1ccc(OC)c(C(O)CCc2cccc(O)c2)c1OCCN1CCCCC1 (stereo not shown) [compound 9],11
9,COc1ccc(OC)c(C(O)CCc2ccc(O)cc2)c1OCCN1CCCCC1 (stereo not shown) [compound 10],20
10,COc1ccc(OC)c(C(O)CCc2ccc(O)cc2)c1OCCCN1CCCCC1 (stereo not shown) [compound 11],22
11,CCN(CC)CCOc1c(OC)ccc(OC)c1C(O)CCc1ccc(O)cc1 (stereo not shown) [compound 12],23
12,COc1ccc(OC)c(C(O)CCc2ccc(O)cc2)c1OCCN1CCCC1 (stereo not shown) [compound 13],27
13,COc1cc(OC)c(C(O)CCc2ccc(O)cc2)c(OCCN2CCCCC2)c1OC (stereo not shown) [compound 14],33
14,COc1cc(OC)c(CCCc2ccc(O)cc2)c(OCCN2CCCCC2)c1 [compound 60],8.9
15,CCCN(CCC)CCOc1c(OC)ccc(OC)c1C(O)CCc1ccc(O)cc1 (stereo not shown) [compound 62],13
16,COc1c2c(c(OC)c(C(O)CCc3ccc(O)cc3)c1OCCN1CCCCC1)OCCO2 (stereo not shown) [compound 66],15.7
17,COc1c(OC)c(OC)c(C(O)CCc2ccc(O)cc2)c(OCCN2CCCCC2)c1OC (stereo not shown) [compound 67],32.5
18,"COc1c(OCCN2CCCCC2)c(C(O)CCc2ccc(O)cc2)c(OC)c2ccccc12 (stereo not shown) [compound 68, 3-parahydroxyphenyl 1-[3-(2-piperidino)ethoxy 1,4-dimethoxynaphtalenyl-2]propanol-1, hydrated]",12.3
19,COc1cc(Cl)c(OC)c(OCCN2CCCCC2)c1C(O)CCc1ccc(O)cc1 (stereo not shown) [compound 69],8.6
20,CCN(CC)CCOc1c(OC)c(Cl)cc(OC)c1C(O)CCc1ccc(O)cc1 (stereo not shown) [compound 70],14
21,COc1cc(Cl)c(OC)c(OCCN(C(C)C)C(C)C)c1C(O)CCc1ccc(O)cc1 (stereo not shown) [compound 71],11.5
22,COc1cc(F)c(OC)c(OCCN2CCCCC2)c1C(O)CCc1ccc(O)cc1 (stereo not shown) [compound 72],3.4
23,COc1cc(Cl)c(OC)c(C(O)CCc2ccc(O)cc2)c1OCCN1CCCCC1 (stereo not shown) [compound 73],11.7
24,COc1cc([N+](=O)[O-])c(OC)c(C(O)CCc2ccc(O)cc2)c1OCCN1CCCCC1 (stereo not shown) [compound 74],18.6
25,CC(C)(Cc1ccc(O)cc1)C(O)c1ccccc1OCCN1CCCCC1 (stereo not shown) [compound 77],43
